Reference: patent publication US10576456B2, “Systems and methods of preparing stabilized lipid assemblies” (ARIZONA BOARD OF REGENTS ON BEHALF OF THE UNIVERSITY OF …, priority 2014, dated 2020)

How the values were obtained:
[1] = Frontal chromatography retention on bare silica; format: physicochemical; conditions: PBS pH 7.4, 1 μL min^−1, 100 μM sample
Description: (§1) Particles were packed in capillaries (50 μm or 75 μ[…].; Polymicro Technologies, Phoenix, Ariz.) against Microtight filter assemblies (Upchurch Scientific, Oak Harbor, Wash.). […] Frontal chromatography was performed using a lab-built instrument. Isocratic elution with PBS, pH 7.4, as the mobile phase utilized pressure driven flow that was applied by a Micropro Syringe Pumping System (Eldex, Napa, Calif.) connected to a […] injection valve (Valco, Houston, Tex.) with a 600 nL sample loop. […] The elution profile was monitored by ultraviolet absorbance detection (Model 500 Detector, ChromTech, Apple Valley, Minn.) at 220 nm. Signal from the detector was collected with an A/D converter (NI USB-6221, National Instruments, Austin, Tex.) and software written in LabVIEW (National Instruments). […] Statistical significance was determined using the two-tailed Student's t-test.

[2] = Frontal chromatography retention on poly(bis-SorbPC)-coated silica; format: physicochemical; conditions: PBS pH 7.4, 1 μL min^−1, 100 μM sample
Description: as §1

[3] = TIRFM measurement of Alexa 488-CTB binding to GM1 in polymerized bis-SorbPC PSLB; conditions: 1 mol % GM1; 1 h static incubation
Description: Phosphate buffered saline (PBS) was used to measure the background. Alexa 488-CTB solutions (500 μL) were then injected into the flow cell, sequentially from the lowest concentration to the highest. One hour of static incubation after each injection, the fluorescent signal from GM1-bound Alexa 488-CTB was then measured. The fluorescent signal from dissolved Alexa 488-CTB was negligible so the dissolved protein solution was not flushed from the cell before each measurement. The solid line is a fit of the data to the Hill equation.
CTB labeled with Alexa Fluor 488 (Alexa 488-CTB) was purchased from Invitrogen (Eugene, Oreg.). Total internal reflection fluorescence microscopy (TIRFM) was used to measure the binding of Alexa 488-CTB to 1 mol % GM1 in a polymerized bis-SorbPC PSLB. The TIRFM system has been described previously. The 488 nm line of an Ar^+ laser (Ion Laser Technology) was coupled into a fused silica slide using a 45° prism (Edmund Optics). […] One of the internal reflections at the upper surface of the slide was used to excite fluorescence from Alexa 488-CTB bound to the PSLB. The fluorescence signal was collected using a 4× objective, directed through a 535DF35 (Omega Optical, Brattleboro, Vt.) band pass filter, and detected using CCD (Andor Technology USA, South Windsor, Conn.).

Molecule	Retention time [1]	Retention time [2]	dissolved concentration that saturates the PSLB [3]
O=C(O)c1ccccc1 [Benzoic acid]	9.6 ± 0.2 min	14.1 ± 0.1 min	–
O=C(O)c1ccccc1O [Salicylic acid]	9.7 ± 0.1 min	14.3 ± 0.1 min	–
CC(=O)Oc1ccccc1C(=O)O [Acetylsalicylic acid]	10.1 ± 0.2 min	14.6 ± 0.6 min	–
Alexa 488-CTB: CTB labeled with Alexa Fluor 488	–	–	approximately 0.1 μM
